From patent publication US11339156B2, “3-(1H-pyrazol-4-yl)pyridine allosteric modulators of the M4 muscarinic acetylcholine receptor” (Merck Sharp & Dohme Corp., priority 2017, dated 2022)

molecular target: T1, human M4 muscarinic acetylcholine receptor (Homo sapiens, UniProt P08173); test: human FLIPR-based M4 PAM assay (CHO-K1 cells with human M4 receptor and Gαqi5, calcium dye fluorescence); type: cell-based; settings: inflection point of 4 parameter logistic fit; acetylcholine added at 20% of maximum response; read-out: M4PAM IP
T1 construct: expressed in transfected cells
T1 sequence (P08173 1-479): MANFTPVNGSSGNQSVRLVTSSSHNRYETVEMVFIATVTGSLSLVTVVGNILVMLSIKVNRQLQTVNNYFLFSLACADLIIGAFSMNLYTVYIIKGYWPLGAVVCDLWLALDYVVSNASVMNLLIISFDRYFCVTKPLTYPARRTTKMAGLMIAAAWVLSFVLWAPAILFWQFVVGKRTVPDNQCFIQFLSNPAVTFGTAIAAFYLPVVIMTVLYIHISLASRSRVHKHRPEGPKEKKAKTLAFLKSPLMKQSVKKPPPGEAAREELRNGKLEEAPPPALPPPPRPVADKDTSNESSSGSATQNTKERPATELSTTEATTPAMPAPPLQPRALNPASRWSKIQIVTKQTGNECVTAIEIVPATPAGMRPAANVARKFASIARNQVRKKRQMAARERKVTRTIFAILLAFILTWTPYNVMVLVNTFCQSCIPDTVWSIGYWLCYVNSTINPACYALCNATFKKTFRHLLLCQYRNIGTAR
Experimental: In a typical experiment the M4 muscarinic acetylcholine receptor modulating activity of the compounds of the present invention was determined in accordance with the following experimental method. CHO-K1 cells stably transfected with human M4 receptor and chimeric G-protein Gαqi5 (Coward P, et al., Analytical Biochemistry, 270:242-248 (1999)) are thawed from liquid N2 storage, resuspended in growth medium, plated in black, clear bottom 384 well plates, and incubated 16-20 hours at 37° C., 5% CO2. On the day of assay, growth medium is removed, the cells are washed 2 times with wash buffer, and cells are incubated in dye loading buffer at 37° C., 5% CO2 for ˜1 hour. Following dye loading the cell plates are placed in a FLIPR Tetra instrument and while monitoring dye fluorescence (excitation […]), 10 uL of test substance at increasing concentrations is added, and fluorescence values are recorded for 4 min. Next, 10 uL of acetylcholine is added (final concentration calculated so as to achieve 20% of the maximum acetycholine response), and the fluorescence reading is continued for 3.5 min. In some cases, a third addition of acetylcholine (final concentration calculated to achieve 70% of the maximal acetylcholine response) is performed. The resulting dose response curves are fit to a 4 parameter logistic equation and the final result is determined as the inflection point (IP) of the curve
CHO-K1 cells stably transfected with human M4 receptor and chimeric G-protein Gαqi5 are thawed from liquid N2 storage, resuspended in growth medium, plated in black, clear bottom 384 well plates, and incubated 16-20 hours at 37° C., 5% CO2.
On the day of assay, growth medium is removed, the cells are washed 2 times with wash buffer, and cells are incubated in dye loading buffer at 37° C., 5% CO2 for ˜1 h. Following dye loading the cell plates are placed in a FLIPR Tetra instrument and while monitoring dye fluorescence ([…]), 10 uL of test substance at increasing concentrations is added, and fluorescence values are recorded for 4 min. Next, 10 uL of acetylcholine is added (final concentration calculated so as to achieve 20% of the maximum acetycholine response), and the fluorescence reading is continued for 3.5 min. In some cases, a third addition of acetylcholine (final concentration calculated to achieve 70% of the maximal acetylcholine response) is performed.

EC50	SMILES
95.9 nM	CC1(Cn2cc(-c3ccc(C#N)nc3-c3ccn4ccnc4c3)cn2)CCOC1 (racemic) [Example 108, 6-(imidazo[1,2-a]pyridin-7-yl)-5-(1-((3-methyltetrahydrofuran-3-yl)methyl)-1H-pyrazol-4-yl)picolinonitrile]
58.6 nM	N#Cc1ccc(-c2cnn(CC(F)(F)C3CC3)c2)c(-c2ccn3ccnc3c2)n1 [Example 1, 5-(1-(2-cyclopropyl-2,2-difluoroethyl)-1H-pyrazol-4-yl)-6-(imidazo[1,2-a]pyridin-7-yl)picolinonitrile]
76 nM	Cc1ccc(-c2cnn(CC3(C)CCCCC3)c2)c(-c2ccc3cn(C)nc3c2)n1 [Example 2, 2-methyl-6-(6-methyl-3-{1-[(1-methylcyclohexyl)methyl]-1H-pyrazol-4-yl}pyridin-2-yl)-2H-indazole]
66.6 nM	Cc1ccc(-c2cnn(CC3(C)CCCCC3)c2)c(-c2ccc3cn[nH]c3c2)n1 [Example 3, 6-(6-methyl-3-{1-[(1-methylcyclohexyl)methyl]-1H-pyrazol-4-yl}pyridin-2-yl)-1H-indazole]
69.9 nM	Cc1ccc(-c2cnn(CC3(C)CCCCC3)c2)c(-c2ccc3c(C)n[nH]c3c2)n1 [Example 4, 3-methyl-6-(6-methyl-3-{1-[(1-methylcyclohexyl)methyl]-1H-pyrazol-4-yl}pyridin-2-yl)-1H-indazole]
38.8 nM	Cc1ccc(-c2cnn(CC3(C)CCCCC3)c2)c(-c2cnc3c(c2)ncn3C)n1 [Example 5, 3-methyl-6-(6-methyl-3-{1-[(1-methylcyclohexyl)methyl]-1H-pyrazol-4-yl}pyridin-2-yl)-3H-imidazo[4,5-b]pyridine]
17.6 nM	Cc1ccc(-c2cnn(CC34CC(C3)C4)c2)c(-c2ccc3c(c2)C(=O)N(C)C3)n1 [Example 7, 6-{3-[1-(bicyclo[1.1.1]pent-1-ylmethyl)-1H-pyrazol-4-yl]-6-methylpyridin-2-yl}-2-methyl-2,3-dihydro-1H-isoindol-1-one]
26.6 nM	Cc1ccc(-c2cnn(CC34CC(C3)C4)c2)c(-c2ccc3c(c2)C(=O)NC3)n1 [Example 8, 6-{3-[1-(bicyclo[1.1.1]pent-1-ylmethyl)-1H-pyrazol-4-yl]-6-methylpyridin-2-yl}-2,3-dihydro-1H-isoindol-1-one]
80.8 nM	Cc1ccc(-c2cnn(CCC(C)(C)F)c2)c(-c2ccc3c(c2)C(=O)N(C)C3)n1 [Example 9, 6-{3-[1-(3-fluoro-3-methylbutyl)-1H-pyrazol-4-yl]-6-methylpyridin-2-yl}-2-methyl-2,3-dihydro-1H-isoindol-1-one]
130 nM	Cc1ccc(-c2cnn(CCC(C)(C)F)c2)c(-c2ccc3c(c2)C(=O)NC3)n1 [Example 10, 6-{3-[1-(3-fluoro-3-methylbutyl)-1H-pyrazol-4-yl]-6-methylpyridin-2-yl}-2,3-dihydro-1H-isoindol-1-one]
136 nM	Cc1ccc(-c2cnn(Cc3ccccc3)c2)c(-c2ccc3c(c2)C(=O)N(CC2CC2)C3)n1 [Example 11, 6-[3-(1-benzyl-1H-pyrazol-4-yl)-6-methylpyridin-2-yl]-2-(cyclopropylmethyl)-2,3-dihydro-1H-isoindol-1-one]
24.5 nM	Cc1ccc(-c2cnn(CC34CCC(CC3)CC4)c2)c(-c2ccc3c(c2)C(=O)N(CC2CC2)C3)n1 [Example 12, 6-{3-[1-(bicyclo[2.2.2]oct-1-ylmethyl)-1H-pyrazol-4-yl]-6-methylpyridin-2-yl}-2-(cyclopropylmethyl)-2,3-dihydro-1H-isoindol-1-one]
126 nM	Cc1ccc(-c2cnn(Cc3ccccc3F)c2)c(-c2ccc3c(c2)C(=O)N(C2CC2)C3)n1 [Example 13, 2-cyclopropyl-6-{3-[1-(2-fluorobenzyl)-1H-pyrazol-4-yl]-6-methylpyridin-2-yl}-2,3-dihydro-1H-isoindol-1-one]
48.8 nM	Cc1ccc(-c2cnn(CC3CCC(F)(F)CC3)c2)c(-c2ccc3c(c2)C(=O)N(CC2CC2)C3)n1 [Example 14, 2-(cyclopropylmethyl)-6-(3-{1-[(4,4-difluorocyclohexyl)methyl]-1H-pyrazol-4-yl}-6-methylpyridin-2-yl)-2,3-dihydro-1H-isoindol-1-one]
26.5 nM	Cc1ccc(-c2cnn(CC3(C)CCC(F)(F)CC3)c2)c(-c2ccc3c(c2)C(=O)N(C)C3)n1 [Example 15, 6-(3-{1-[(4,4-difluoro-1-methylcyclohexyl)methyl]-1H-pyrazol-4-yl}-6-methylpyridin-2-yl)-2-methyl-2,3-dihydro-1H-isoindol-1-one]
61.7 nM	Cc1cn2ccc(-c3nc(C#N)ccc3-c3cnn(CC(C)(C)CC(F)(F)F)c3)cc2n1 [Example 16, 6-(2-methylimidazo[1,2-a]pyridin-7-yl)-5-[1-(4,4,4-trifluoro-2,2-dimethylbutyl)-1H-pyrazol-4-yl]pyridine-2-carbonitrile]
277 nM	Cc1cn2ccc(-c3ncccc3-c3cnn(CC4(CC(F)F)CC4)c3)cc2n1 [Example 17, 7-[3-(1-{[1-(2,2-difluoroethyl)cyclo-propyl]methyl}-1H-pyrazol-4-yl)pyridin-2-yl]-2-methylimidazo[1,2-a]pyridine]
61.4 nM	CCC(F)(F)Cn1cc(-c2ccc(C#N)nc2-c2ccn3ccnc3c2)cn1 [Example 18, 5-[1-(2,2-difluorobutyl)-1H-pyrazol-4-yl]-6-imidazo[1,2-a]pyridin-7-ylpyridine-2-carbonitrile]
49.9 nM	N#Cc1ccc(-c2cnn(CC3(CF)CC3)c2)c(-c2ccn3ccnc3c2)n1 [Example 19, 5-(1-{[1-(fluoromethyl)cyclo-propyl]methyl}-1H-pyrazol-4-yl)-6-imidazo[1,2-a]pyridin-7-ylpyridine-2-carbonitrile]
144 nM	Cc1cn2ccc(-c3nc(C#N)ccc3-c3cnn(CC(C)(F)F)c3)cc2n1 [Example 20, 5-[1-(2,2-difluoropropyl)-1H-pyrazol-4-yl]-6-(2-methylimidazo[1,2-a]pyridin-7-yl)pyridine-2-carbonitrile]
30.7 nM	CC(C)C(F)(F)Cn1cc(-c2ccc(C#N)nc2-c2ccn3ccnc3c2)cn1 [Example 21, 5-[1-(2,2-difluoro-3-methylbutyl)-1H-pyrazol-4-yl]-6-imidazo[1,2-a]pyridin-7-ylpyridine-2-carbonitrile]
202 nM	Cc1cn2ccc(-c3nc(C#N)ccc3-c3cnn(CC(F)(F)C(F)F)c3)cc2n1 [Example 22, 6-(2-methylimidazo[1,2-a]pyridin-7-yl)-5-[1-(2,2,3,3-tetrafluoropropyl)-1H-pyrazol-4-yl]pyridine-2-carbonitrile]
78.1 nM	N#Cc1ccc(-c2cnn(C[C@H]3C[C@@H]3C(F)(F)F)c2)c(-c2ccn3ccnc3c2)n1 [Example 25, 6-imidazo[1,2-a]pyridin-7-yl-5-(1-{[(1S,2S)-2-(trifluoromethyl)cyclo-propyl]methyl}-1H-pyrazol-4-yl)pyridine-2-carbonitrile]

SMILES	EC50
Cc1cn2ccc(-c3nc(C#N)ccc3-c3cnn(CC(F)(F)C(F)(F)C(F)F)c3)cc2n1 [Example 23, 5-[1-(2,2,3,3,4,4-hexafluorobutyl)-1H-pyrazol-4-yl]-6-(2-methylimidazo[1,2-a]pyridin-7-yl)pyridine-2-carbonitrile]	42.3 nM
N#Cc1ccc(-c2cnn(CC(F)(F)C(F)(F)C(F)(F)F)c2)c(-c2ccn3ccnc3c2)n1 [Example 24, 5-[1-(2,2,3,3,4,4,4-heptafluorobutyl)-1H-pyrazol-4-yl]-6-imidazo[1,2-a]pyridin-7-ylpyridine-2-carbonitrile]	89.9 nM
